According to patent US20250043360A1, “USE OF RPN11 MARKER IN DETECTION OF MYELOMA AND DISEASE RISK THEREOF, PROGNOSIS ANALYSIS AND TREATMENT MEDICAMENT” (Peking University, priority 2022, published 2025):

What was measured:
Type in all cases: cell-based
[1] = system: bortezomib-resistant LP-1 cells (LP-1BR); test: Cell apoptosis experiment, bortezomib-resistant LP-1 cells; conditions: LP-1BR cells, vs control group (Vehicle); OPA 10 μM, Capzimin 2 μM; FIG. 7B
Experimental: (§1) Apoptosis was detected in LP-1 cells stably overexpressing and knocking down RPN11. The cells were treated with camptothecin (CPT) for 24 h, washed with PBS, double-stained with Annexin V-APC/propidium iodide (PI) for 15 min at room temperature in the dark, and cell collection and analysis were conducted on each sample using a FACS Calibur flow cytometer.
(§2) Wild-type or bortezomib-resistant LP-1 cells (LP-1 or LP-1BR) were treated with Vehicle or RPN11 inhibitor (OPA or Capzimin) separately, and the proliferation and apoptosis of LP-1BR cells were detected through CCK cell counting experiment and cell apoptosis experiment.

[2] = system: bortezomib-resistant LP-1 cells (LP-1BR); test: CCK cell counting experiment, bortezomib-resistant LP-1 cells; conditions: LP-1BR cells, vs control group (Vehicle); OPA 10 μM, Capzimin 2 μM; FIG. 7A
Experimental: (§3) CCK kit was used to detect cell proliferation of LP-1 cells stably overexpressing and knocking down RPN11: after the transfected cells were cultured for 48 h, the cells were digested with 0.25% trypsin and counted, inoculated in a 96-well plate at a concentration of 1×10^4 cells/mL, 100 μL in each well; 10 μL of CCK8 reagent was added to each well of the 96-well plate in the dark, the culture plate was shaken for 3 min, then placed into the incubator to continue culturing for 2 h, and the culture plate was taken out and the OD value was measured at a wavelength of 450 nm with a microplate reader.
as §2

[3] = system: LP-1 cells; test: Cell apoptosis experiment, wild-type LP-1 cells; conditions: vs control group (Vehicle), OPA 10 μM, Capzimin 2 μM, FIG. 7B
Experimental: as §1, §2

[4] = system: LP-1 cells; test: CCK cell counting experiment, wild-type LP-1 cells; conditions: vs control group (Vehicle), OPA 10 μM, Capzimin 2 μM, FIG. 7A
Experimental: as §3, §2

[5] = system: LP-1 cells; test: CCK cell counting assay, RPN11 inhibitor combined with Lenalidomide or Dexamethasone; conditions: vs either agent alone, range of concentrations, FIG. 8
Experimental: as §3
LP-1 cells were treated with RPN11 inhibitors (OPA or Capzimin) or/and Lenalidomide or Dexamethasone (within a range of concentrations), and the cell proliferation ability was detected using CCK cell counting assay.

Structure (SMILES): c1cnc2c(c1)ccc1cccnc12 [OPA]
- number of apoptotic cells [1]: significantly increased
- proliferation ability [2]: significantly reduced
- number of apoptotic cells [3]: significantly increased
- proliferation ability [4]: significantly reduced
- combined treatment effect on inhibiting the growth and proliferation ([5]; combined with dexamethasone): synergistic effect
- combined treatment effect on inhibiting the growth and proliferation ([5]; combined with lenalidomide): synergistic effect
